The values that follow come from PMC6720511, “Synthesis and biological evaluation of novel N-(piperazin-1-yl)alkyl-1H-dibenzo[a,c]carbazole derivatives of dehydroabietic acid as potential MEK inhibitors” (Journal of Enzyme Inhibition and Medicinal Chemistry, 2019).

Common to all, as to assay type: cell-based, human
Assay [1] concerns SMMC-7721. The experiment in a line: MTT cytotoxic assay. Particulars: Homo sapiens, SMMC-7721, 48 h, mean value ± SD. The method, boiled down: (§1)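 Cells seeded at 2 × 10^5 cells/mL in DMEM + 10% FBS attached for 24 h, then were exposed to compounds for 48 h at 37 °C. MTT (2.5 mg/mL solution) was added for 4 h; DMSO-dissolved formazan was read at 570 nm. Normal QSG-7701 hepatocytes were tested alongside; doxorubicin was positive control.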

For assay [2], the system named is Hep3B. The experiment in a line: MTT cytotoxic assay. The note with it: Homo sapiens, Hep3B, 48 h, mean value ± SD. The method, boiled down: as §1
(In general: Formazan colour is commonly taken as a measure of viable cells.)

The test system of assay [3] is HepG2. The experiment in a line: MTT cytotoxic assay. Particulars: Homo sapiens, HepG2, 48 h, mean value ± SD. In short, it runs like this:
as §1

Assay [4] relates to HepG2 cells. The experiment in a line: ROS generation assay (DCFH-DA). The note with it: dose-dependent. On the procedure: Reactive oxygen species (ROS) generation assay was performed by using the reactive oxygen species assay kit (Beyotime Biotech., China). Intracellular ROS generation was tested through dichlorodihydro fluorescein diacetate (DCFH-DA) assay. DCFH-DA is taken up by HepG2 cells, and then activated by esterase-mediated cleavage of acetate to form dichlorodihydro fluorescein (DCFH), which is trapped in the cells. DCFH is converted to fluorescein DCF in the presence of ROS. HepG2 cells were seeded in six-well plates and incubated with different concentrations of compound 10g for 24 h. After removing the compound solution, cells were treated with 10 µM of DCFH-DA at 37 °C for 20 min. Subsequently, the cells were washed with PBS for three times and then exposed to light. Immediately after light exposure, cell images were acquired through an inverted fluorescence microscope (Olympus 1X71 Inverted System Microscope, Olympus, Tokyo, Japan).

The subject of assay [5] is normal hepatocyte cell line (QSG-7701). Briefly: MTT cytotoxic assay on normal hepatocytes. The note with it: Homo sapiens, QSG7701, 48 h, mean value ± SD. In short, it runs like this:
as §1

In general, IC50 refers to the concentration needed to halve the response being measured. High values mean lower potency, low ones higher potency.

As for `CCOc1ccc2c(c1)c1c(n2CCN2CCNCC2)-c2cc(C(C)C)ccc2C2(C)CCCC(C)(C(=O)OC)C12` (centres unmarked) [Compound 10g, 2,3,4,4a,9,13c-Hexahydro-12-ethoxy-7-isopropyl-1,4a-dimethyl-9–(2-(piperazin-1-yl)ethyl)-1H-dibenzo[a,c]carbazole-1-carboxylic acid methyl ester], the IC50 is 1390 ± 130 nM in assay [1], 730 ± 80 nM in assay [2], 510 ± 90 nM in assay [3] and 12500 ± 580 nM in assay [5]. The “ROS generation (in words)” value in assay [4] is given as “remarkably induce ROS generation”.
